The values below are quoted from earlier work in patent US20220387349A1, “TREATMENT OF CUTANEOUS ADVERSE EFFECTS CAUSED BY ONCOLOGICAL THERAPY WITH TOPICAL TAPINAROF COMPOSITIONS” (Sol-Gel Technologies Ltd, priority 2019, published 2022).

Like-named read-outs stand apart in the source and are kept apart here.

For series [1] the following is noted: psoriasis treatment, as a single drug; placebo 20.2%.
In series [2] the test system is interleukin-6 and interleukin-17A. Conditions: mouse models.
Series [3] has the same test system. Conditions: in vitro human skin studies.
Where [4] appears, read: 1% tapinarof arm compared with the 0.5% arm or vehicle.

As to `C=C1/C(=C\C=C2/CCC[C@]3(C)[C@@H]([C@H](C)/C=C/[C@@H](O)C4CC4)CC[C@@H]23)C[C@@H](O)C[C@@H]1O` [calcipotriene], in series [1], the adverse effects is given as 19.5%.
In the case of `CC(C)c1c(O)cc(/C=C/c2ccccc2)cc1O` [Tapinarof, 3,5-dihydroxy-4-isopropyl-trans-stilbene], the adverse effects in series [1] was 44.5%. Besides, in series [2], the “effect on skin barrier function” value is recorded as “enhance skin barrier function”; the “effect on specific proinflammatory mediators, including interleukin-6 and interleukin-17A” value is given as “inhibit specific proinflammatory mediators”. Under setting [4], the efficacy entry is listed as “higher efficacy” and the onset of action entry is “quicker onset of action”. The “most frequent adverse events” value (topical tapinarof) is “folliculitis and contact dermatitis”. Moreover, the “side-effects at higher concentrations” value (topical, higher than 1% w/w tapinarof) is “undesirable side-effects”. Besides, in series [3], the “effect on skin barrier function” value was “enhance skin barrier function”; the “effect on specific proinflammatory mediators, including interleukin-6 and interleukin-17A” value is “inhibit specific proinflammatory mediators”.
